The values below are quoted from earlier work in patent US20130189275A1, “COMPOSITIONS AND METHODS FOR INHIBITION OF OR TREATMENT OF DENGUE VIRUS INFECTION” (priority 2010, published 2013).

In data set [1] the test system is Syndecan-2.
The subject of data set [2] is Syndecan-3.
Data set [3] deals with Syndecan-4.
For data set [4], the system named is Syndecan-1.

As to `C=C(c1ccc(C(=O)O)cc1)c1cc2c(cc1C)C(C)(C)CCC2(C)C` [bexarotene], in data set [1], the syndecan-2 expression entry is on record as “downregulated”.
For the molecule `C[C@]12CCC(=O)C[C@@H]1CC[C@@H]1[C@@H]2CC[C@]2(C)[C@@H](O)CC[C@@H]12` [dihydrotestosterone], in data set [2], the syndecan-3 expression result is recorded as “downregulated”.
In the case of `O=C1NC(=O)C(c2ccccc2)(c2ccccc2)N1` [phenyloin (PHT), phenyloin], the syndecan-4 expression entry in data set [3] is “downregulated”.
With `Cc1cccc(Nc2cc(Cl)nc(SCC(=O)O)n2)c1C` [pirinixic acid], the syndecan-1 expression result in data set [4] is reported as “downregulated”.
For the molecule `CC1=C(/C=C/C(C)=C/C=C/C(C)=C/C(=O)O)C(C)(C)CCC1` [tretinoin], the syndecan-1 expression result in data set [4] is reported as “downregulated”.
